Experimental data published in US20100204295A1, “TREATMENT OF ALLERGIC DISEASE WITH IMMUNOMODULATOR COMPOUNDS” (SCICLONE PHARMACEUTICALS, INC., priority 2007, published 2010).
Where “and” joins values, the source holds several entries; their conditions need not be identical. Equal entries are not always repeated. Entries after “also recorded” stand apart in the source; their conditions may differ.

Tests used:
[1] = system: pollinosis; assay: Case report: SCV-07 before specific immunotherapy of pollinosis; assay type: in vivo, human; conditions: SCV-07 perorally 1.5 mg once a day for 10 days, 15 days before SIT; season April-June 2006
Procedure: Patient.—P-na M. N., 45 years. Date of first consultation—October 2004. From the end of November 2004 to mid-March 2005, the patient underwent specific immunotherapy (SIT) for pollinosis, using the allergoid (“Puretal-tree”) according to the scheme: subcutaneous once a week, beginning with a single dose of the administered allergoid of 0.025 mL, the subsequent dose are escalated during the course of treatment until reaching a single dose of 0.5 mL (0.025 mL-0.05 mL, −0.1 mL-0.2 mL-0.3 mL-0.4 mL-0.5 mL), and the following does are staying on this dose. Considering the above situation, during October 2005, to increase the clinical effectiveness of SIT, under initiating or anticipatory conditions, immune stimulation—a course of the preparation “SCV-07” —was perorally administered as follows: 1.5 mg once a day daily for 10 days in a row. On completion of the “SCV-07” course, the patient, from the middle of November 2005 through mid-March 2006, underwent another course of SIT for pollinosis, using the allergoid “Puretal-tree” according to the previous scheme. The interval between the “SCV-07” course and the beginning of the SIT course for pollinosis was 15 days.

[2] = system: immediate allergic reaction to OVA aerosol; assay: Immediate response to aerosol, comments recorded during aerosolization, guinea pig model; assay type: in vivo, Dunkin-Hartley guinea pigs; conditions: one animal per line, listed as SCV
Procedure: Female Dunkin-Hartley guinea pigs (200-350 g) were purchased from Charles River, Kingston, New York facility, Barrier […]. Animals were shipped to Duluth, Minn., and held in our animal facility for 5-7 days prior to beginning the experiment. Experimental treatment groups are outlined in Table 7. Animals were sensitized on day 0 ip with 50 mg/kg OVA. On Days 17, 18, 19, and 20, animals received an ip injection between 8 and 10 am with PBS, SCV-07 at 1 ug/kg, or SCV-07 at 10 ug/kg (Peptide treatment). Between 8 and 10 a.m. on Day 21, animals were administered peptide 2 hours before OVA or saline (NSS) aerosol challenge. 30 min before OVA or NSS aerosol challenge each animal was injected ip with an antihistamine (6.1 mg/kg pyrilamine maleate) to prevent death due to the anaphylactic response that accompanies aerosol OVA challenge. Animals were exposed to aerosol in pairs with either 1% OVA solution or NSS for 5 min in a plexiglass chamber (22×22×29 cm) using a DeVilbiss Model 35B Ultrasonic Nebulizer. Animals were observed during the total 5 min aerosolization and comments recorded. Within 22-24 hours after challenge, animals were euthanized, bled by cardiac puncture, lavaged and lung lobes removed for measurement of cellular infiltration. At the time of OVA or NSS challenge and euthanasia, animal weights ranged from approximately 350-550 g, with the average weight approximately 420 g. This experimental protocol is similar to that used in previously published studies (Regal and Fraser, 1996; Regal et al., 2000). The experimenter was not blinded to the treatment. […] In general, animals sensitized and challenged with OVA and antihistamine pre-treated will not die from the allergen challenge, but will experience labored breathing and oftentimes coughing and gasping. All 7 animals in the PBS OVA treatment group had some visible reaction as expected. The remarkable finding was the number of animals in the SCV 1 OVA and SCV 10 OVA treatment groups that had no apparent reaction to the OVA aerosol. […] The obvious speculation is that SCV-07 attenuates the immediate bronchoconstriction to allergen challenge. Follow-up experiments are definitely indicated by this observation.

[3] = system: OVA specific IgG1; assay: OVA specific IgG1 in serum by ELISA, guinea pig model; assay type: in vivo, Dunkin-Hartley guinea pigs; conditions: 1 or 10 ug/kg ip days 17-21
Procedure: Animals were sensitized on day 0 ip with 50 mg/kg OVA. On Days 17, 18, 19, and 20, animals received an ip injection between 8 and 10 am with PBS, SCV-07 at 1 ug/kg, or SCV-07 at 10 ug/kg (Peptide treatment). Between 8 and 10 a.m. on Day 21, animals were administered peptide 2 hours before OVA or saline (NSS) aerosol challenge. 30 min before OVA or NSS aerosol challenge each animal was injected ip with an antihistamine (6.1 mg/kg pyrilamine maleate) to prevent death due to the anaphylactic response that accompanies aerosol OVA challenge. Animals were exposed to aerosol in pairs with either 1% OVA solution or NSS for 5 min in a plexiglass chamber (22×22×29 cm) using a DeVilbiss Model 35B Ultrasonic Nebulizer. Animals were observed during the total 5 min aerosolization and comments recorded. Within 22-24 hours after challenge, animals were euthanized, bled by cardiac puncture, lavaged and lung lobes removed for measurement of cellular infiltration. At the time of OVA or NSS challenge and euthanasia, animal weights ranged from approximately 350-550 g, with the average weight approximately 420 g. […]
OVA specific IgG1 in serum was determined by ELISA as previously described (Fraser et al., 1998; Regal et al., 2000). The data were expressed as the concentration of OVA specific IgG1 in the sample divided by the concentration of OVA specific IgG1 in the standard, defined as 1. […]

[4] = system: immunization with sheep red blood cells; conditions: in vivo; cited from earlier work
[5] = in vivo; cited from earlier work

For N[C@H](CCC(=O)N[C@@H](Cc1c[nH]c2ccccc12)C(=O)O)C(=O)O [SCV-07, γ-D-glutamyl-L-tryptophan], the “Seasonal rhinoconjunctival symptoms after SIT preceded by SCV-07 course” value [1] was “seasonal rhinoconjunctival symptoms were virtually absent”, the “Comment recorded during aerosolization” value ([2]; SCV 1 NSS: SCV-07 1 ug/kg ip, NSS aerosol) was “huddling in corner; also recorded: no rx” and the “Comment recorded during aerosolization” value ([2]; SCV 1 OVA: SCV-07 1 ug/kg ip, OVA aerosol) was “slight cough 1x? and 1 cough?”. For the same compound, the “Comment recorded during aerosolization” value ([2]; SCV 10 NSS: SCV-07 10 ug/kg ip, NSS aerosol) was “huddling in corner, no rx”, the “Comment recorded during aerosolization” value ([2]; SCV 10 OVA: SCV-07 10 ug/kg ip, OVA aerosol) was “no rx (3×) and slight cough and 1 cough? and deeper breathing (2×)” and the “Concentration of OVA specific IgG1 antibody in the serum” value [3] was “did not significantly affect”. For the same compound, the “Effect in a model of immunization with sheep red blood cells” value [4] was “strong immunostimulatory effect” and the “Non-toxic dose as multiple of the employed doses” value [5] was ≥ 100,000 times.
